Source: ChEMBL document CHEMBL5500352, “ML162 derivatives incorporating a naphthoquinone unit as ferroptosis/apoptosis inducers: Design, synthesis, anti-cancer activity, and drug-resistance reversal evaluation” (Eur J Med Chem, 2024)
The source made the active and inactive calls. The rule behind the calls is not given here.

Key:
HT-1080 [1] = experiment: Induction of ferroptosis in human HT-1080 cells assessed as appearance of ruptured mitochondria at 4 uM after 24 hrs by transmission electron microscope analysis; assay type: functional, cell-based
HT-1080 [2] = experiment: Induction of apoptosis in human HT-1080 cells assessed as late apoptotic cells at 1 uM incubated for 24 hrs by Annexin-V FITC/PI staining based flow cytometry analysis (reference value: 1.66%); assay type: functional
HT-1080 [3] = experiment: Induction of apoptosis in human HT-1080 cells assessed as viable cells at 2 uM incubated for 24 hrs by Annexin-V FITC/PI staining based flow cytometry analysis (reference value: 92.5%); assay type: functional; settings: read-out: Activity
HT-1080 [4] = experiment: Induction of apoptosis in human HT-1080 cells assessed as necrotic cells at 2 uM incubated for 24 hrs by Annexin-V FITC/PI staining based flow cytometry analysis (reference value: 3.98%); assay type: functional
[5] = Potentiation of AMG510 induced cytotoxicity in human AMG 510-resistant MIA PaCa-2 cells assessed as reduction in cell survival rate at 1 uM in presence of 10 nM AMG510 (reference value: 90%); assay type: functional
HT-1080 [6] = experiment: Induction of apoptosis in human HT-1080 cells assessed as increase in Bax level after 24 hrs by Western blotting analysis; assay type: functional, cell-based; settings: dose 0.5-4 µM
HT-1080 [7] = experiment: Induction of ferroptosis in human HT-1080 cells assessed as appearance of broken outer membrane of mitochondria at 4 uM after 24 hrs by transmission electron microscope analysis; assay type: functional, cell-based
HT-1080 [8] = experiment: Induction of ferroptosis in human HT-1080 cells assessed as accumulation of lipid peroxidation at 1 to 4 uM after 12 hrs by BODIPYTM 581/591C11 probe based flow cytometry assay; assay type: functional, cell-based; settings: dose 1-4 µM
HT-1080 [9] = experiment: Induction of ferroptosis in human HT-1080 cells assessed as accumulation of intracellular ROS level at 4 uM after 12 hrs by DCFH-DA staining based confocal laser scanning microscopy analysis; assay type: functional, cell-based
HT-1080 [10] = experiment: Antitumor activity against human HT-1080 cells xenografted in ip dosed BALB/c nude mouse assessed as tumor growth inhibition administered once daily for 19 days and measured every 2 days; assay type: functional, organism-based; settings: dose 20-40 mg/kg, time 19.0 day
HT-1080 [11] = experiment: Induction of ferroptosis in human HT-1080 cells assessed as mitochondrial swelling at 4 uM after 24 hrs by transmission electron microscope analysis; assay type: functional, cell-based
HT-1080 [12] = experiment: Induction of apoptosis in human HT-1080 cells assessed as early apoptotic cells at 1 uM incubated for 24 hrs by Annexin-V FITC/PI staining based flow cytometry analysis (reference value: 1.85%); assay type: functional
[13] = Toxicity in BALB/c nude mouse xenografted with human HT-1080 cells assessed as change in kidney morphology at 20 to 40 mg/kg, ip administered once daily for 19 days and measured every 2 days by H and E staining based assay; assay type: organism-based; settings: in vivo, 456 h, dose 20-40 mg/kg, time 19 day
HT-1080 [14] = experiment: Antitumor activity against human HT-1080 cells xenografted in ip dosed BALB/c nude mouse assessed as increase in 4-HNE level administered once daily for 19 days and measured every 2 days by immunohistochemistry assay; assay type: functional, organism-based; settings: dose 20-40 mg/kg, time 19.0 day
HT-1080 [15] = experiment: Induction of apoptosis in human HT-1080 cells assessed as early apoptosis at 1 to 2 uM incubated for 48 hrs by Annexin-V FITC/PI staining based flow cytometry analysis; assay type: functional, cell-based; settings: dose 1-2 µM
[16] = Cytotoxicity against human HPNE cells; assay type: toxicity, cell-based
HT-1080 [17] = experiment: Antitumor activity against human HT-1080 cells xenografted in BALB/c nude mouse assessed as tumor growth inhibition at 40 mg/kg, ip administered once daily for 19 days and measured every 2 days; assay type: functional; settings: HT-1080, 456 h, time 19 day, read-out: TGI
HT-1080 [18] = experiment: Induction of apoptosis in human HT-1080 cells assessed as viable cells at 4 uM incubated for 24 hrs by Annexin-V FITC/PI staining based flow cytometry analysis (reference value: 92.5%); assay type: functional; settings: read-out: Activity
[19] = Toxicity in BALB/c nude mouse xenografted with human HT-1080 cells assessed as change in spleen morphology at 20 to 40 mg/kg, ip administered once daily for 19 days and measured every 2 days by H and E staining based assay; assay type: organism-based; settings: in vivo, 456 h, dose 20-40 mg/kg, time 19 day
HT-1080 [20] = experiment: Cytotoxicity against human HT-1080 cells incubated for 48 hrs by CCK-8 assay; assay type: functional, cell-based; settings: HT-1080, 48 h
[21] = Toxicity in BALB/c nude mouse xenografted with human HT-1080 cells assessed as edema at 20 to 40 mg/kg, ip administered once daily for 19 days and measured every 2 days by H and E staining based assay; assay type: organism-based; settings: in vivo, 456 h, dose 20-40 mg/kg, time 19 day
HT-1080 [22] = experiment: Inhibition of colony formation in human HT-1080 cells incubated for 48 hrs followed by replacement with fresh media and measured after 12 days by crystal violet staining based assay; assay type: functional, cell-based; settings: dose 1-2 µM
HT-1080 [23] = experiment: Induction of apoptosis in human HT-1080 cells assessed as viable cells at 1 uM incubated for 24 hrs by Annexin-V FITC/PI staining based flow cytometry analysis (reference value: 92.5%); assay type: functional; settings: read-out: Activity
HT-1080 [24] = experiment: Antitumor activity against human HT-1080 cells xenografted in BALB/c nude mouse assessed as tumor growth inhibition at 20 mg/kg, ip administered once daily for 19 days and measured every 2 days; assay type: functional, organism-based; settings: time 19.0 day
HT-1080 [25] = experiment: Induction of apoptosis in human HT-1080 cells assessed as necrotic cells at 4 uM incubated for 24 hrs by Annexin-V FITC/PI staining based flow cytometry analysis (reference value: 3.98%); assay type: functional
[26] = Toxicity in BALB/c nude mouse xenografted with human HT-1080 cells assessed as cellular inflammation at 20 to 40 mg/kg, ip administered once daily for 19 days and measured every 2 days by H and E staining based assay; assay type: organism-based; settings: in vivo, 456 h, dose 20-40 mg/kg, time 19 day
HT-1080 [27] = experiment: Induction of apoptosis in human HT-1080 cells assessed as late apoptotic cells at 2 uM incubated for 24 hrs by Annexin-V FITC/PI staining based flow cytometry analysis (reference value: 1.66%); assay type: functional
HT-1080 [28] = experiment: Cytotoxicity against human HT-1080 cells assessed as cell viability at 4 uM in presence of fer-1 (reference value: 30%); assay type: functional; settings: read-out: Activity
HT-1080 [29] = experiment: Induction of apoptosis in human HT-1080 cells assessed as early apoptotic cells at 2 uM incubated for 24 hrs by Annexin-V FITC/PI staining based flow cytometry analysis (reference value: 1.85%); assay type: functional
[30] = test system: AMG 510-resistant MIA PaCa-2; experiment: Cytotoxicity against human AAMG 510-resistant MIA PaCa-2 cells at 10 uM; assay type: functional, cell-based
[31] = Toxicity in BALB/c nude mouse xenografted with human HT-1080 cells assessed as change in lung morphology at 20 to 40 mg/kg, ip administered once daily for 19 days and measured every 2 days by H and E staining based assay; assay type: organism-based; settings: in vivo, 456 h, dose 20-40 mg/kg, time 19 day
HT-1080 [32] = experiment: Induction of apoptosis in human HT-1080 cells assessed as decrease in Bcl-2 level after 24 hrs by Western blotting analysis; assay type: functional, cell-based; settings: dose 0.5-4 µM

## O=C(CCCCCNC1=CC(=O)c2ccccc2C1=O)Nc1ccc(N(C(=O)CCl)C(C(=O)NCCc2ccccc2)c2cccs2)cc1 (configuration not stated)
HT-1080 [1]
  Activity: Active
HT-1080 [2]
  Activity: 3.11%
HT-1080 [3]
  viability at 2 µM: 82.7%
HT-1080 [4]
  Activity: 4.02%
[5]
  Activity: ~60%
HT-1080 [6]
  Activity: Dose-Dependent Effect
HT-1080 [7]
  Activity: Active
HT-1080 [8]
  Activity: Active
HT-1080 [9]
  Activity: Active
HT-1080 [10]
  Activity: Dose-Dependent Effect
HT-1080 [11]
  Activity: Active
HT-1080 [12]
  Activity: 3.85%
[13]
  Activity: Non-Toxic
HT-1080 [14]
  Activity: Dose-Dependent Effect
HT-1080 [15]
  Activity: Active
[16]
  IC50: 9.55 µM
HT-1080 [17]
  inhibition in vivo at 40 mg/kg: 63%
HT-1080 [18]
  viability at 4 µM: 79.9%
[19]
  Activity: Non-Toxic
HT-1080 [20]
  IC50: 1.6 µM
[21]
  Activity: Non-Toxic
HT-1080 [22]
  inhibition: Dose-Dependent Effect
HT-1080 [23]
  viability at 1 µM: 90.7%
HT-1080 [24]
  Activity: Active
HT-1080 [25]
  Activity: 3.03%
[26]
  Activity: Non-Toxic
HT-1080 [27]
  Activity: 4.75%
HT-1080 [28]
  viability at 4 µM: 66%
HT-1080 [29]
  Activity: 8.48%
[30]
  Activity: Active
[31]
  Activity: Non-Toxic
HT-1080 [32]
  Activity: Dose-Dependent Effect
